Data on 9 compounds can be found in ChEMBL document CHEMBL1139045, “Design and synthesis of a novel class of dual PPARgamma/delta agonists” (Bioorg Med Chem Lett, 2007).

The target in data set [1] is T1, Peroxisome proliferator-activated receptor alpha (Homo sapiens, UniProt Q07869).
T1 sequence (Q07869 whole entry): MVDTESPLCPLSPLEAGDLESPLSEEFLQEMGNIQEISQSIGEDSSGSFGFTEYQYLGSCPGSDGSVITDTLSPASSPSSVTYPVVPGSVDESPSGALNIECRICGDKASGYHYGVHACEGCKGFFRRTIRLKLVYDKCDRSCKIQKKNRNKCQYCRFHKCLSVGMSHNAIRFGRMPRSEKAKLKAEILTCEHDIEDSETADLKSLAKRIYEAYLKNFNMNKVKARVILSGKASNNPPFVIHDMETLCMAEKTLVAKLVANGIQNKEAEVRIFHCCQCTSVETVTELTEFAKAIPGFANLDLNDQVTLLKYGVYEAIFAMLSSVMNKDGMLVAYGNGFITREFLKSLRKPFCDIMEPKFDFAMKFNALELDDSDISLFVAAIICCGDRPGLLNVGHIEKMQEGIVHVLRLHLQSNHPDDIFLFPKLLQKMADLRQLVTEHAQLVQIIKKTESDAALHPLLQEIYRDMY

Data set [2] in a line: in vivo. To be noted: db/db, mouse.
For data set [3], the target named is T2, Peroxisome proliferator-activated receptor delta (Homo sapiens, UniProt Q03181).
T2 sequence (Q03181 whole entry): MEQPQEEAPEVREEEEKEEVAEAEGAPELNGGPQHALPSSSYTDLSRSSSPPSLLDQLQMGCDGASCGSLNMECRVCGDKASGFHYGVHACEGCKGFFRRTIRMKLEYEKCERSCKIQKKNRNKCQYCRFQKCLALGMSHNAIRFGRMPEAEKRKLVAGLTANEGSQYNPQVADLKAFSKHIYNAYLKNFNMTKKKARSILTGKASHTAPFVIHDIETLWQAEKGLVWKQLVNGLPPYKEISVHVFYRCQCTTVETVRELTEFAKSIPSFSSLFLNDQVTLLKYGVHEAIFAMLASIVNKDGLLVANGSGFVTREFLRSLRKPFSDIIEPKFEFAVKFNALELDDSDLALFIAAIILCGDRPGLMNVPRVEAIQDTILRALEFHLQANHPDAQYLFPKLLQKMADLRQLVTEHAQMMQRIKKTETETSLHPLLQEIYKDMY
It counts as functional, cell-based, CV-1.

The target of data set [4] is T1, Peroxisome proliferator-activated receptor alpha. The format is functional, cell-based, CV-1.
In data set [5] the target is T2, Peroxisome proliferator-activated receptor delta.
Data set [6] can be described thus: in vivo. The following applies: Sprague-Dawley, rat, po, 12 mg/kg.
The nature of data set [7]: in vivo. To be noted: Sprague-Dawley, rat, po, 12 mg/kg. The source holds these as a separate data set.
Data set [8] in a line: in vivo. To be noted: Sprague-Dawley, rat, iv, 1 mg/kg.
The nature of data set [9]: in vivo. The following applies: Sprague-Dawley, rat, po, 12 mg/kg. The source holds these as a separate data set.

Take `CCc1cc(OCC[C@@H](C)Oc2ccc(C(F)(F)F)cc2-c2ccccn2)ccc1CCC(=O)O`: the IC50 – broadly, the concentration at which inhibition is half-maximal – is 6090 nM in data set [1] and 3 nM in data set [5]. In the data set “in vivo [2]”, this compound had a concentration at 1 h of 4200 ng/mL. The figures for the EC50 in [3] and in [4] were 6 nM and 2630 nM, respectively.

With `CCc1ccc(O[C@H](C)CCOc2ccc(CCC(=O)O)c(CC)c2)c(-c2ccccn2)c1`, the IC50 in [1] came to 7350 nM; in data set [5], 3 nM. Besides, the AUC (commonly concentration integrated over time) in “in vivo [6]” came out at 75500 ng·h/mL. Besides, in the data set “in vivo [7]”, the half-life (as a rule, how long it takes for the measured level to halve) is 3 h. Moreover, a half-maximal effect in [3] (EC50) was put at 7 nM. Also, the clearance (usually the rate of elimination divided by the concentration) in “in vivo [8]” stood at 1.9 mL/min/kg. Further, the bioavailability (usually dose-corrected exposure relative to a reference, in per cent) in the data set “in vivo [9]” came out at 71%.

Take `CCc1ccc(O[C@H](C)CCOc2ccc(CCC(=O)O)c(C)c2)c(-c2cccnc2)c1`: the EC50 (usually the midpoint of the concentration-response curve) in data set [4] is 2900 nM.

In data set [1], `CCc1ccc(O[C@H](C)CCOc2ccc(CCC(=O)O)c(C)c2)c(-c2cscn2)c1` showed an IC50 of 4100 nM. Moreover, the midpoint of the response in data set [4], the EC50, lay at 2680 nM.

For `CCc1ccc(O[C@H](C)CCOc2ccc(CCC(=O)O)c(C)c2)c(-c2cocn2)c1`, in [1], the midpoint of inhibition, the IC50, lay at 4990 nM. The compound also came in with an EC50 in data set [4] of 2810 nM.

In data set [1], `CCc1ccc(O[C@H](C)CCOc2ccc(CCC(=O)O)c(C)c2)c(-c2ncco2)c1` gave an IC50 of 10400 nM. In addition, the EC50 in data set [4] was found to be 2890 nM.

On to `CCc1ccc(O[C@H](C)CCOc2ccc(CCC(=O)O)c(C)c2)c(-c2ccco2)c1`, for which the IC50 in data set [1] is 4500 nM. In data set [4], this compound had an EC50 of 2800 nM.

For the compound `Cc1cc(OCC[C@@H](C)Oc2ccc(C(F)(F)F)cc2-c2ccccn2)ccc1CCC(=O)O`, the values for the IC50 in [1] and in data set [5] were 5880 nM and 4 nM, respectively. Also, the EC50 in [3] is 6 nM; in data set [4], 2340 nM.

The compound `CCc1ccc(O[C@H](C)CCOc2ccc(CCC(=O)O)c(C)c2)c(-c2ccsc2)c1` gave an IC50 in data set [1] of 5950 nM.
